Patent US9073858B2, “Methods of targeted drug development” (priority 2010, dated 2015)
Read-outs that look alike come from different tables or passages of the source.

Tests used:
MDBK line = assay: MTT Cell Proliferation Assay, MDBK line; type: cell-based, bovine; settings: Bos taurus, MDBK
Source text: (§1) The following example describes the MTT Cell Proliferation Assay.
(§2) The MTT Cell Proliferation Assay is a colorimetric assay system that measures the reduction of the tetrazolium salt MTT (3-(4,5-dimethylthiazol-2-yl)-2,5-diphenyltetrazolium bromide) into insoluble formazan crystals, produced by the mitochondria of viable cells. […] The color can then be quantified by spectrophotometric means. Among the applications for the method are drug sensitivity, cytotoxicity, response to growth factors, and cell activation. The reduction of tetrazolium salts is now recognized as a safe, accurate alternative to radiometric testing.
(§3) Two replicates on each cell plate and 2 duplicate plates gave 4 individual replicates of each concentration, in each cell line. Concentrations were diluted in 100% DMSO from 25 mM stocks.
(§4) Twelve 96 well plates of each cell line were plated. Plating was done by dislodging cells as in passage protocol, counting on a hemocytometer, re-suspending in standard growth media, and plating using a multichannel pippetor.
(§5) 16 μl of 25 mM stock+34 μl DMSO=8 mM starting concentrations, and serial diluted as with test compounds in same plate. […] Two replicates of each concentrations was run on each cell plate. All compound addition and cell treatments were done using aseptic technique under a laminar flow aseptic hood.
(§6) Control: 0.5% DMSO in treatment media was used as the control.
(§7) MTT dye (Thiazolyl Blue Tetrazolium Bromide, Sigma cat # M5655) stock was prepared in bulk and stored at 4° C. for use: 5 mgs/ml sterile PDS, shielded from light. 4 ul of this stock per 100 uls treatment media per well was used.
(§8) Plates were incubated overnight prior to treatment, with treatment day=Day 0. Compound treatments were prepared prior to washing cells to minimize time cells were dry at room temperature after final aspiration. Compounds were diluted in 100% DMSO in 96 well polypropylene plates:40 μl 25 mM stock+10 μl DMSO=20 mM; 20 μl of 20 mM+30 μl DMSO=8 mM; 20 μl of 8 mM+30 μl DMSO=3.2 mM; 20 μl of 3.2 mM+30 μl DMSO=1.3 mM; 20 μl of 1.3 mM+30 μl DMSO=0.51 mM.
(§9) 5.0 μl/ml were added to treatment media, in sterile, 2.2 ml deep well plates=0.5% dmso final. Ten μl of each dmso concentration was added to 2.0 ml of treatment media and then mixed using a 1200 μl multichannel pipettor. Cell plates were treated from the deep well plates. Treatment media was standard growth media containing 0.5% FBS and standard additions. This reduced FBS concentration allowed for a slower growth rate in cells.
(§10) Media was aspirated from cell plates, and washed with 200 μl/well sterile PBS. Aspirated PBS wash, and cell plates were treated with 200 μl of compound/treatment media per well, and incubated at 37° C., 5% CO2 for 3 days.
(§11) Prior to harvesting, visual observations were made under an inverted microscope. Plates were harvested by: aspirating the growth media; adding back MTT dye/100 μl treatment media; and incubating plates at 37° C. for 1 hour. MTT dye was aspirated. 100 μl/well dmso was added, and then shaken on a Bellco plate shaker for 5 minutes, at 4.5 setting.
(§12) Plates were read in a Tecan Sunrize UV plate reader, at 560 nm. Settings: Read mode, Outside Normal 2 sec; Shake settle time 3 sec. Data is reported as % inhibition, calculated for individual plates using control values from that plate.

EGFR = molecular target: T1, EGFR (Homo sapiens, UniProt P00533); assay: EGFR in-cell Western (ICW) screening protocol; type: cell-based; parameters: unit not given here; settings: for ICW Screen: initial screen
T1 construct: endogenous in cells; host or cells: A431 cells (ATCC CRL-1555)
Experimental: The following example describes general EGFR in-cell Western (ICW) screening protocol.
Two cell plates were prepared for each compound plate.
Serum Starvation: The cells were serum starved prior to compound addition. […] The cell plates were incubated at 37° C./5% CO2 for 2 hours.
Prepared compound plates were stored at RT prior to use and at 4° C. long term.
Compound Dilution Plate Preparation: 250 μl of DMEM supplemented with 1 mg/ml BSA (Sigma A3059-10G) was added to the appropriate wells of a 96 well plate to prepare the compound dilution plates. Using a multichannel pipettor, 1.25 μl of compound from the compound plate was transferred into the compound dilution plate.
Compound Addition: The starve media was removed from the cell plates by aspiration. Using a multichannel pipettor, the compound dilution plates were mixed by pipetting up and down three times. 50 μl of mixed, diluted compound was added to each of two rows/columns on each of two cell plates. The cell plates with compound were incubated at 37° C./5% CO2 for 4 hours.
50 μl of 20 or 0 ng/ml EGF was added to the appropriate wells without the removal of compound. The compound and EGF were mixed by pipetting up and down three times.
The plates were incubated at RT for 20 min without shaking. The Fixation Solution was removed by aspiration and the plates washed four times with 200 μl each of Triton Wash Solution (1×PBS, Sigma P3813-10PK, and 0.1% Triton X-100, T8787-50ML) for 5 min with gentle shaking.
The block was removed by aspiration and 50 μl of diluted primary Ab mix was added. The plates were incubated at 4° C. overnight with gentle shaking. The plates were washed five times with 200 μl of PBST (1×PBS, Sigma P3813-10PK, and 0.1% Tween-20, Sigma P9416-50ML) for 5 min each with shaking. 50 μl of diluted secondary Ab mix was added and the plates incubated at RT for 1 h with shaking. The plates were washed 5× with 200 μl of PBST for 5 min each with shaking. One final wash with 200 μl of PBS (Sigma P3813-10PK) for 5 min with shaking was performed prior to scanning.
In some screening assays, the dilution of the secondary Ab conjugates was 1/800 rather than 1/1200.
Plate Scanning: The plates were scanned on an Odyssey Infrared Imaging System from LI-COR Biosciences. The focus offset was set at 3.5 mm and the scanning intensity set at 3 for the 700 channel and 7 for the 800 channel.
Data Analysis: The % of Maximum and % Inhibition values were calculated as follows. 700 Channel=signal for total EGFR (used to control for variation in cell number). 800 Channel=signal for phosphorylated EGFR. 800−EGF=basal level EGFR phosporylation+non-specific signal (no compound). 800+EGF=800−EGF+EGF dependent EGFR receptor phosphorylation (no compound). 700/800com=700 or 800 channel signals with compound. % Maximum={[(800com/700com)−(800−EGF/700−EGF)]/[(800+EGF/700+EGF)−(800−EGF/700−EGF)]}×100%. % Inhibition=100%−(% Maximum).

[1] = system: epithelial carcinoma A431 cell line; assay: MTT Cell Proliferation Assay, A431 cell line; type: cell-based; settings: for MTT (10 Point follow-up) ratio / MTT-72 h A431/MDBK (ratio): value in brackets; for MTT (10 Point follow-up) ratio: numerically MDBK over A431; for MTT-72 h A431/MDBK (ratio): numerically MDBK value over A431 value; for IC50: Homo sapiens
Source text: as §1, §2, §3, §4, §5, §6, §7, §8, §9, §10, §11, §12

[2] = 10 point follow-up, second value of pair, read-out: MTT (10 Point follow-up) MDBK
[3] = 72 h, second value of A431/MDBK pair, read-out: MTT-72 h MDBK
[4] = A-431, 10 point follow-up, first value of pair, read-out: MTT (10 Point follow-up) A431
[5] = A-431, 72 h, 72 h, first value of A431/MDBK pair, read-out: MTT-72 h A431

T1 sequence (P00533 25-1210): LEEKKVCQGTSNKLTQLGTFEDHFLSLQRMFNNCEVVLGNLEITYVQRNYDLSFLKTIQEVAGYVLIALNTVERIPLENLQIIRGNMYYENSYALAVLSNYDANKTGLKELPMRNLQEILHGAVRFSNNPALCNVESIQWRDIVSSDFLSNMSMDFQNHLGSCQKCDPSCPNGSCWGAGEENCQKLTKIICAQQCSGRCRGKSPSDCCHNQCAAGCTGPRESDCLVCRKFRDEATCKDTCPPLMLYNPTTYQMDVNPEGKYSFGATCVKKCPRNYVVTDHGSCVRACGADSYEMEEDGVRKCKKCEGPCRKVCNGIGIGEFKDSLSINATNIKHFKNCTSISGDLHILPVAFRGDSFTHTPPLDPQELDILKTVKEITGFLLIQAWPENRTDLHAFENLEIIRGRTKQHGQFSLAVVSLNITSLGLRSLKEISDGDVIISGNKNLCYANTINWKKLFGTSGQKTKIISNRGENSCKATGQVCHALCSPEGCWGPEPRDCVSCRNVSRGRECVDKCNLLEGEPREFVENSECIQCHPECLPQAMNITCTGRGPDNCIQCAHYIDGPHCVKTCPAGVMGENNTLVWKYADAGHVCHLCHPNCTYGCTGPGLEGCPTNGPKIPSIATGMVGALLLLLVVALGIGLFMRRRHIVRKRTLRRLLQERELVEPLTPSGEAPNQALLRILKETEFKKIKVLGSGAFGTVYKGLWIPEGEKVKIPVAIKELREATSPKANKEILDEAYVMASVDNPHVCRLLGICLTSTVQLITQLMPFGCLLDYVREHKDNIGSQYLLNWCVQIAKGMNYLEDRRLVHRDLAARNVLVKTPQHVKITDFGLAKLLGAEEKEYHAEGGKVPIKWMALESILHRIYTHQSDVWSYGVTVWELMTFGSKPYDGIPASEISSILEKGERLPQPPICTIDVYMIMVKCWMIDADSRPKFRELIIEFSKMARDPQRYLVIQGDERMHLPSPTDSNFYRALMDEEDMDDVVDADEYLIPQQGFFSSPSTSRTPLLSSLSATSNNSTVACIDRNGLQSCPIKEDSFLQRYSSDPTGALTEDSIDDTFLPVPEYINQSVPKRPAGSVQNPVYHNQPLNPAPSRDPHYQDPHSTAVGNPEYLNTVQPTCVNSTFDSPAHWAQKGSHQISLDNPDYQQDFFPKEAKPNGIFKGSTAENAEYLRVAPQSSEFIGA

SMILES	IC50 (MDBK line; [2])	IC50 (MDBK line; [3])	ICW Screen (EGFR)	ICW Re-Test (EGFR)	MTT (10 Point follow-up) ratio [1]	MTT-72 h A431/MDBK (ratio) ([1]; 72 h)	IC50 [1, 4]	IC50 [1, 5]	MTT-72 h % Max ([1]; 72 h, maximal effect printed after the ratio)
COc1ccc(C(Nc2cc(C)ccn2)c2ccc3cccnc3c2O)cc1C (stereo not drawn) [compound 10005]	4.14 µM	3.69 µM	43.76	33.76	1.20	1.07	3.45 µM	3.44 µM	–
COc1ccc(C(Nc2ccccn2)c2ccc3ccc(C)nc3c2O)cc1OC (stereo not drawn) [compound 10006]	–	15.1 µM	35.13	45.57	–	1.37	–	11 µM	–
CCOc1ccc(C(Nc2ccccn2)c2ccc3cccnc3c2O)cc1O (stereo not drawn) [compound 10013]	6.32 µM	6.42 µM	61.2	62.77	1.79	1.80	3.53 µM	3.56 µM	–
Cc1cccc(NC(c2ccccc2F)c2ccc3cccnc3c2O)n1 (stereo not drawn) [compound 10015]	3.28 µM	–	25.99	–	0.99	–	3.31 µM	–	–
Cc1ccnc(NC(c2ccc(O)cc2)c2ccc3ccc(C)nc3c2O)c1 (stereo not drawn) [compound 10016]	–	25.8 µM	41.45	29.99	–	1.00	–	25.8 µM	–
CCOc1ccc(C(Nc2cc(C)ccn2)c2ccc3cccnc3c2O)cc1OC (stereo not drawn) [compound 10017]	2.98 µM	3.51 µM	44.27	30.11	0.85	0.94	3.52 µM	3.72 µM	–
Cc1ccccc1C(Nc1ccccn1)c1ccc2cccnc2c1O (stereo not drawn) [compound 10019]	3.21 µM	5.25 µM	33.75	–	0.71	0.98	4.49 µM	5.35 µM	–
Cc1cccc(NC(c2ccccc2C)c2ccc3ccc(C)nc3c2O)n1 (stereo not drawn) [compound 10026]	–	5.19 µM	37.03	41.06	–	0.97	–	5.22 µM	–
CCCOc1ccc(C(Nc2ccccn2)c2ccc3cccnc3c2O)cc1 (stereo not drawn) [compound 10028]	–	5.38 µM	30.12	–	–	0.95	–	5.69 µM	–
Cc1ccnc(NC(c2cc(C)ccc2O)c2ccc3cccnc3c2O)c1 (stereo not drawn) [compound 10029]	–	5.42 µM	40.02	35.03	–	0.84	–	6.46 µM	–
Cc1ccnc(NC(c2ccc3cccnc3c2O)c2sccc2C)c1 (stereo not drawn) [compound 10963]	–	–	100.4	99.05	–	1.98	–	–	40%
